Laboratory results published in the supplement of paper PMC10307832.

Assays:
Assay in all cases: relative viability (nuclei count vs DMSO), 5 days (fraction); higher = more cells survive
[1] = tested on: NCI-H1650
Procedure, shortened: (§1)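 After 5 days of treatment, lung cancer cells in 1536-well plates were fixed and stained in a single step (final 0.05% Triton X-100, 1% formaldehyde, 1 ug/ml Hoechst) and their nuclei counted on 4× images. Treatment had been applied by pin tool the day after seeding as one drug alone or as a fixed anchor-drug dose with five library-drug doses (not always all listed) in √10 steps. Relative viability is the nuclei count of treated wells divided by that of vehicle wells, and values are medians of duplicate plates.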

[2] = tested on: NCI-H441
Procedure, shortened: as §1

[3] = tested on: NCI-H2087
Procedure, shortened: as §1

[4] = tested on: NCI-H838
Procedure, shortened: as §1

[5] = tested on: NCI-H1651
Procedure, shortened: as §1

[6] = tested on: NCI-H2009
Procedure, shortened: as §1

[7] = tested on: PC-3 [JPC-3]
Procedure, shortened: as §1

[8] = tested on: NCI-H23
Procedure, shortened: as §1

[9] = tested on: NCI-H1975
Procedure, shortened: as §1

[10] = tested on: NCI-H2085
Procedure, shortened: as §1

[11] = tested on: NCI-H2170
Procedure, shortened: as §1

[12] = tested on: H3255
Procedure, shortened: as §1

[13] = tested on: EPLC-272H
Procedure, shortened: as §1

[14] = tested on: NCI-H727
Procedure, shortened: as §1

[15] = tested on: LC-2-ad
Procedure, shortened: as §1

[16] = tested on: LOU-NH91
Procedure, shortened: as §1

[17] = tested on: NCI-H2023
Procedure, shortened: as §1

[18] = tested on: NCI-H2228
Procedure, shortened: as §1

[19] = tested on: HARA
Procedure, shortened: as §1

[20] = tested on: SW 1573
Procedure, shortened: as §1

[21] = tested on: UMC-11
Procedure, shortened: as §1

Compound `Cc1cn(-c2cc(NC(=O)c3ccc(C)c(Nc4nccc(-c5cccnc5)n4)c3)cc(C(F)(F)F)c2)cn1` [Nilotinib] + CC1(C)CCC(c2ccc(Cl)cc2)=C(CN2CCN(c3ccc(C(=O)NS(=O)(=O)c4ccc(N[C@H](CCN5CCOCC5)CSc5ccccc5)c(S(=O)(=O)C(F)(F)F)c4)cc3)CC2)C1 [Navitoclax] (partner 0.5 µM) has a relative viability ([1]; first compound 0.001 µM) of 1.15, a relative viability ([1]; first compound 0.003162 µM) of 1.26 and a relative viability ([1]; first compound 0.01 µM) of 1.45. The relative viability ([1]; first compound 0.03162 µM) was 0.99, the relative viability ([1]; first compound 0.1 µM) was 1.11 and the relative viability ([2]; first compound 0.001 µM) was 0.499. It also gave a relative viability ([2]; first compound 0.003162 µM) of 0.667, a relative viability ([2]; first compound 0.01 µM) of 0.568 and a relative viability ([2]; first compound 0.1 µM) of 0.493. The relative viability ([3]; first compound 0.001 µM) was 0.795, the relative viability ([3]; first compound 0.003162 µM) was 0.86 and the relative viability ([3]; first compound 0.01 µM) was 0.997. The relative viability ([3]; first compound 0.03162 µM) was 0.93, the relative viability ([3]; first compound 0.1 µM) was 0.734 and the relative viability ([4]; first compound 0.001 µM) was 1.09. For the same compound, the relative viability ([4]; first compound 0.003162 µM) was 1.42, the relative viability ([4]; first compound 0.01 µM) was 1.54 and the relative viability ([4]; first compound 0.03162 µM) was 1.05. For the same compound, the relative viability ([4]; first compound 0.1 µM) was 1.15, the relative viability ([5]; first compound 0.001 µM) was 1.05 and the relative viability ([5]; first compound 0.003162 µM) was 1.56. The relative viability ([5]; first compound 0.01 µM) was 1.43, the relative viability ([5]; first compound 0.03162 µM) was 0.782 and the relative viability ([5]; first compound 0.1 µM) was 1.21. It also gave a relative viability ([6]; first compound 0.001 µM) of 1.09, a relative viability ([6]; first compound 0.003162 µM) of 1.19 and a relative viability ([6]; first compound 0.01 µM) of 1.21. It also gave a relative viability ([6]; first compound 0.03162 µM) of 1.19, a relative viability ([6]; first compound 0.1 µM) of 1.23 and a relative viability ([7]; first compound 0.001 µM) of 0.699. For the same compound, the relative viability ([7]; first compound 0.003162 µM) was 1, the relative viability ([7]; first compound 0.01 µM) was 0.888 and the relative viability ([7]; first compound 0.03162 µM) was 0.666. For the same compound, the relative viability ([7]; first compound 0.1 µM) was 0.741, the relative viability ([8]; first compound 0.001 µM) was 0.78 and the relative viability ([8]; first compound 0.003162 µM) was 0.839. It also gave a relative viability ([8]; first compound 0.01 µM) of 1.09, a relative viability ([8]; first compound 0.03162 µM) of 0.605 and a relative viability ([8]; first compound 0.1 µM) of 0.721. For the same compound, the relative viability ([9]; first compound 0.001 µM) was 0.904, the relative viability ([9]; first compound 0.003162 µM) was 1.22 and the relative viability ([9]; first compound 0.01 µM) was 1.34. The relative viability ([9]; first compound 0.03162 µM) was 0.694, the relative viability ([9]; first compound 0.1 µM) was 0.976 and the relative viability ([10]; first compound 0.001 µM) was 1.12. The relative viability ([10]; first compound 0.003162 µM) was 1.19, the relative viability ([10]; first compound 0.01 µM) was 1.38 and the relative viability ([10]; first compound 0.03162 µM) was 0.957. The relative viability ([10]; first compound 0.1 µM) was 1.03, the relative viability ([11]; first compound 0.001 µM) was 0.483 and the relative viability ([11]; first compound 0.003162 µM) was 0.64. For the same compound, the relative viability ([11]; first compound 0.01 µM) was 0.716, the relative viability ([11]; first compound 0.03162 µM) was 0.56 and the relative viability ([11]; first compound 0.1 µM) was 0.771. For the same compound, the relative viability ([12]; first compound 0.001 µM) was 0.508, the relative viability ([12]; first compound 0.003162 µM) was 0.479 and the relative viability ([12]; first compound 0.01 µM) was 0.541. The relative viability ([12]; first compound 0.03162 µM) was 0.246, the relative viability ([12]; first compound 0.1 µM) was 0.382 and the relative viability ([13]; first compound 0.001 µM) was 1.1. The relative viability ([13]; first compound 0.003162 µM) was 1.32, the relative viability ([13]; first compound 0.01 µM) was 1.5 and the relative viability ([13]; first compound 0.03162 µM) was 0.804. It also gave a relative viability ([13]; first compound 0.1 µM) of 1.28, a relative viability ([14]; first compound 0.001 µM) of 0.478 and a relative viability ([14]; first compound 0.01 µM) of 0.386. It also gave a relative viability ([14]; first compound 0.03162 µM) of 0.385, a relative viability ([14]; first compound 0.1 µM) of 0.253 and a relative viability ([15]; first compound 0.001 µM) of 0.376. For the same compound, the relative viability ([15]; first compound 0.003162 µM) was 0.396, the relative viability ([15]; first compound 0.01 µM) was 0.467 and the relative viability ([15]; first compound 0.03162 µM) was 0.339. It also gave a relative viability ([15]; first compound 0.1 µM) of 0.365, a relative viability ([16]; first compound 0.001 µM) of 0.644 and a relative viability ([16]; first compound 0.003162 µM) of 0.685. For the same compound, the relative viability ([16]; first compound 0.01 µM) was 0.846, the relative viability ([16]; first compound 0.03162 µM) was 0.608 and the relative viability ([16]; first compound 0.1 µM) was 0.658. For the same compound, the relative viability ([17]; first compound 0.001 µM) was 0.914, the relative viability ([17]; first compound 0.003162 µM) was 1.13 and the relative viability ([17]; first compound 0.01 µM) was 1.32. For the same compound, the relative viability ([17]; first compound 0.03162 µM) was 1.02, the relative viability ([17]; first compound 0.1 µM) was 1.02 and the relative viability ([18]; first compound 0.001 µM) was 0.662. It also gave a relative viability ([18]; first compound 0.003162 µM) of 1.1, a relative viability ([18]; first compound 0.01 µM) of 0.927 and a relative viability ([18]; first compound 0.03162 µM) of 0.826. The relative viability ([18]; first compound 0.1 µM) was 0.763, the relative viability ([19]; first compound 0.001 µM) was 1.07 and the relative viability ([19]; first compound 0.003162 µM) was 1.26. The relative viability ([19]; first compound 0.01 µM) was 1.24, the relative viability ([19]; first compound 0.03162 µM) was 1.06 and the relative viability ([19]; first compound 0.1 µM) was 1.15. The relative viability ([20]; first compound 0.001 µM) was 1.05, the relative viability ([20]; first compound 0.003162 µM) was 1.23 and the relative viability ([20]; first compound 0.01 µM) was 1.14. For the same compound, the relative viability ([20]; first compound 0.03162 µM) was 0.792, the relative viability ([20]; first compound 0.1 µM) was 1.01 and the relative viability ([21]; first compound 0.001 µM) was 0.303. The relative viability ([21]; first compound 0.003162 µM) was 0.303, the relative viability ([21]; first compound 0.01 µM) was 0.317 and the relative viability ([21]; first compound 0.1 µM) was 0.301.
